From patent publication US11708357B2, “Crystal form of pyrrolidinyl urea derivative and application thereof” (ZHANGZHOU PIEN TZE HUANG PHARMACEUTICAL CO., LTD., priority 2020, dated 2023)

Assay: In vivo pharmacokinetic study in beagle dogs after single administration
Settings: male, dog, plasma, 2 mg/kg, 2 mpk intravenous injection
Method: Male beagle dogs were used as test animals, the concentration of the compound in blood after single administration was determined to evaluate the pharmacokinetic behavior.
Beagle dogs (Male, 6-12 kg, more than 6 months, Beijing Marshall Biotechnology Co., Ltd.).
The objective of the test was to study the pharmacokinetic characteristics of the test compound in non-rodent after intravenous injection and oral administration. In the experiment, the test compound was prepared into a clear solution or homogeneous suspension and administered to the beagle dogs by single intravenous injection or oral administration. In the intravenous injection group, the menstruum was a certain proportion of dimethyl sulfoxide in HP-β-cyclodextrin solution or a certain proportion of ethanol, polyethylene glycol 400 and physiological saline solution, the mixture was vortexed and subjected to ultrasonic treatment to prepare 2 mg/mL clear solution, then filtered with microporous membrane for later use; in the oral administration group, the menstruum was a certain proportion of dimethyl sulfoxide in HP-β-cyclodextrin solution or a certain proportion of sodium carboxymethyl cellulose solution, the test compound was mixed with the menstruum, vortexed and subjected to ultrasonic treatment to prepare 2 mg/mL homogeneous suspension for later use. After 2 mg/kg intravenous administration or 10 mg/kg oral administration to the Beagle dogs, a certain amount of whole blood samples were collected, centrifuged at 3000 g for 10 minutes, and the supernatant was separated to obtain plasma samples; then an acetonitrile solution containing internal standard with a volume 10 times that of the plasma sample was added to precipitate proteins, and then centrifuged; the supernatant was separated for analysis; LC-MS/MS analysis method was used to quantitatively analyze the blood drug concentration, and Phoenix WinNonlin software (Pharsight, USA) was used to calculate the pharmacokinetic parameters, such as peak concentration, time to peak concentration, clearance rate, half-life, area under the concentration-time curve, bioavailability, etc.
Among them, C0 is the initial concentration, T1/2 is the elimination half-life, Vdss is the steady-state apparent volume of distribution, Cl is the total clearance rate, AUC0-inf is the area under the plasma drug concentration-time curve from time 0 to infinity, Cmax is the peak concentration, Tmax is the time to peak concentration.

AUC(0-inf): 4.66 µM·h
C0: 8.46 µM
clearance: 12.4 mL/min/kg
half-life: 26.4 min
Vd (read-out: Vdss): 0.49 L/kg
Structure (SMILES): COCCN1C[C@@H](n2ccc(F)c2)[C@H](NC(=O)Nc2c(C)c(-c3cnc(C4(F)COC4)nc3)nn2-c2ccccc2)C1 [Compound of formula (I)]
